Reference: PubChem BioAssay AID270 (DTP/NCI, 2004)
Several values for one entry are separate records, joined by “and”; a condition that tells them apart may be missing. Equal entries are not always repeated. Records with an inconclusive call do not appear.

Tested on: BDF1 mice, s.c. Lewis lung carcinoma, T/C %
Assay: NCI In Vivo Anticancer Drug Screen. Data for tumor model Lewis Lung Carcinoma (subcutaneous) in B6D2F1 (BDF1) mice
In short: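 First, mice carry a transplantable tumor. Next, groups receive either compound or vehicle. Finally, survival or tumor dimensions in the dosed animals are divided by the corresponding control figure.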

[1] = endpoint: mean tumor weight, dose: 50.0 mg/kg/injection, schedule: Q01DX011 (ip), vehicle: saline, higher = larger tumour
[2] = endpoint: mean tumor weight, dose: 100.0 mg/kg/injection, schedule: Q01DX011 (ip), vehicle: saline, higher = larger tumour

COC(=O)[C@H]1[C@H]2C[C@@H]3c4[nH]c5cc(OC)ccc5c4CCN3C[C@H]2C[C@@H](OC(=O)c2cc(OC)c(OC)c(OC)c2)[C@@H]1OC
T/C (endpoint: median survival time, dose: 0.25 mg/kg/injection, schedule: Q01DX009 (ip), vehicle: Klucel (hydroxypropylcellulose) (HPC), higher = longer survival): 91 % of control
T/C (endpoint: median survival time, dose: 0.5 mg/kg/injection, schedule: Q01DX009 (ip), vehicle: Klucel (hydroxypropylcellulose) (HPC), higher = longer survival): 97 % of control and 243 % of control
T/C (endpoint: median survival time, dose: 1.0 mg/kg/injection, schedule: Q01DX009 (ip), vehicle: Klucel (hydroxypropylcellulose) (HPC), higher = longer survival): 103 % of control
T/C (endpoint: median survival time, dose: 2.0 mg/kg/injection, schedule: Q01DX009 (ip), vehicle: Klucel (hydroxypropylcellulose) (HPC), higher = longer survival): 96 % of control and 243 % of control

COc1cc([C@@H]2c3cc4c(cc3[C@@H](OC3OC5COC(C)OC5C(O)C3O)[C@H]3COC(=O)[C@H]23)OCO4)cc(OC)c1O (stereo partly drawn)
T/C (endpoint: median survival time, dose: 4.0 mg/kg/injection, schedule: Q01DX009 (ip), vehicle: saline, higher = longer survival): 124 % of control
T/C (endpoint: median survival time, dose: 20.0 mg/kg/injection, schedule: Q04DX003 (ip), vehicle: saline, higher = longer survival): 107 % of control
T/C (endpoint: median survival time, dose: 20.0 mg/kg/injection, schedule: Q04DX003 (sc), vehicle: saline, higher = longer survival): 124 % of control
T/C (endpoint: median survival time, dose: 80.0 mg/kg/injection, schedule: Q04DX003 (ip), vehicle: saline, higher = longer survival): 91 % of control

Cc1cc(NCCCCCCNc2cc(C)nc3ccc(N)cc23)c2cc(N)ccc2n1
T/C (endpoint: median tumor weight (est.), dose: 18.75 mg/kg/injection, schedule: Q01DX009 (ip), vehicle: Klucel (hydroxypropylcellulose) (HPC), higher = larger tumour): 75 % of control
T/C (endpoint: median tumor weight (est.), dose: 37.5 mg/kg/injection, schedule: Q01DX009 (ip), vehicle: Klucel (hydroxypropylcellulose) (HPC), higher = larger tumour): 54 % of control
T/C (endpoint: median tumor weight (est.), dose: 37.5 mg/kg/injection, schedule: Q01DX009 (oral), vehicle: Klucel (hydroxypropylcellulose) (HPC), higher = larger tumour): 90 % of control
T/C (endpoint: median tumor weight (est.), dose: 75.0 mg/kg/injection, schedule: Q01DX009 (ip), vehicle: Klucel (hydroxypropylcellulose) (HPC), higher = larger tumour): 27 % of control
T/C (endpoint: median tumor weight (est.), dose: 75.0 mg/kg/injection, schedule: Q01DX009 (oral), vehicle: Klucel (hydroxypropylcellulose) (HPC), higher = larger tumour): 102 % of control
T/C (endpoint: median tumor weight (est.), dose: 150.0 mg/kg/injection, schedule: Q01DX009 (oral), vehicle: Klucel (hydroxypropylcellulose) (HPC), higher = larger tumour): 102 % of control
T/C (endpoint: median tumor weight (est.), dose: 300.0 mg/kg/injection, schedule: Q01DX009 (oral), vehicle: Klucel (hydroxypropylcellulose) (HPC), higher = larger tumour): 84 % of control
T/C (endpoint: median tumor weight (est.), dose: 600.0 mg/kg/injection, schedule: Q01DX009 (oral), vehicle: Klucel (hydroxypropylcellulose) (HPC), higher = larger tumour): 83 % of control

C=C1CC/C=C(\C)CCC2C1CC2(C)C (stereo not drawn)
T/C (endpoint: mean tumor weight, dose: 25.0 mg/kg/injection, schedule: Q01DX011 (ip), vehicle: saline, higher = larger tumour): 94 % of control
T/C [1]: 88 % of control
T/C [2]: 45 % of control

Clc1cccc(Br)c1
T/C (endpoint: mean tumor weight, dose: 25.0 mg/kg/injection, schedule: Q01DX011 (ip), vehicle: other, higher = larger tumour): 95 % of control
T/C (endpoint: mean tumor weight, dose: 50.0 mg/kg/injection, schedule: Q01DX011 (ip), vehicle: other, higher = larger tumour): 81 % of control
T/C (endpoint: mean tumor weight, dose: 100.0 mg/kg/injection, schedule: Q01DX011 (ip), vehicle: other, higher = larger tumour): 58 % of control
T/C (endpoint: mean tumor weight, dose: 200.0 mg/kg/injection, schedule: Q01DX011 (ip), vehicle: other, higher = larger tumour): 30 % of control

CC(=O)C(C)=O
T/C [1]: 116 % of control
T/C [2]: 76 % of control
T/C (endpoint: mean tumor weight, dose: 200.0 mg/kg/injection, schedule: Q01DX011 (ip), vehicle: saline, higher = larger tumour): 71 % of control
T/C (endpoint: mean tumor weight, dose: 400.0 mg/kg/injection, schedule: Q01DX011 (ip), vehicle: saline, higher = larger tumour): 87 % of control

N#Cc1ccc(S(N)(=O)=O)cc1
T/C (endpoint: mean tumor weight, dose: 6.2 mg/kg/injection, schedule: Q01DX011 (ip), vehicle: carboxymethylcellulose (CMC), higher = larger tumour): 52 % of control
T/C (endpoint: mean tumor weight, dose: 12.5 mg/kg/injection, schedule: Q01DX011 (ip), vehicle: carboxymethylcellulose (CMC), higher = larger tumour): 66 % of control

CC(=O)NNC(=O)c1ccccn1
T/C (endpoint: median survival time, dose: 25.0 mg/kg/injection, schedule: Q01DX009 (ip), vehicle: Klucel (hydroxypropylcellulose) (HPC), higher = longer survival): 112 % of control
T/C (endpoint: median survival time, dose: 100.0 mg/kg/injection, schedule: Q01DX009 (ip), vehicle: Klucel (hydroxypropylcellulose) (HPC), higher = longer survival): 102 % of control
T/C (endpoint: median survival time, dose: 200.0 mg/kg/injection, schedule: Q01DX009 (ip), vehicle: Klucel (hydroxypropylcellulose) (HPC), higher = longer survival): 115 % of control

CC(C)CCC[C@@H](C)[C@H]1CC[C@H]2[C@@H]3CC=C4C[C@@H](OC(=O)Cc5ccc(N(CCCl)CCCl)cc5)CC[C@]4(C)[C@H]3CC[C@]12C
T/C (endpoint: mean tumor weight, dose: 50.0 mg/kg/injection, schedule: Q01DX011 (sc), vehicle: steriod suspending solution, higher = larger tumour): 84 % of control
T/C (endpoint: mean tumor weight, dose: 100.0 mg/kg/injection, schedule: Q01DX011 (sc), vehicle: steriod suspending solution, higher = larger tumour): 76 % of control
T/C (endpoint: mean tumor weight, dose: 200.0 mg/kg/injection, schedule: Q01DX011 (sc), vehicle: steriod suspending solution, higher = larger tumour): 78 % of control
T/C (endpoint: mean tumor weight, dose: 400.0 mg/kg/injection, schedule: Q01DX011 (sc), vehicle: steriod suspending solution, higher = larger tumour): 57 % of control

NC(=O)c1ccc(NC(=O)CCC(=O)Nc2ccc(C(N)=O)cn2)nc1
T/C (endpoint: mean tumor weight, dose: 1.25 mg/kg/injection, schedule: Q01DX011 (ip), vehicle: carboxymethylcellulose (CMC), higher = larger tumour): 54 % of control
T/C (endpoint: mean tumor weight, dose: 2.5 mg/kg/injection, schedule: Q01DX011 (ip), vehicle: carboxymethylcellulose (CMC), higher = larger tumour): 24 % of control
